Assay results reported in ChEMBL document CHEMBL1201862, “PubChem BioAssay data set” (2004).
Active and inactive are the calls of the source.

Key:
Coagulation factor XII = molecular target: T1, Coagulation factor XII (Homo sapiens, UniProt P00748); assay type: functional;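 also: activated factor XIIa alpha cleaving a fluorogenic AMC peptide substrate; inhibitor potency from loss of enzyme activity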
T1 sequence (P00748 whole entry): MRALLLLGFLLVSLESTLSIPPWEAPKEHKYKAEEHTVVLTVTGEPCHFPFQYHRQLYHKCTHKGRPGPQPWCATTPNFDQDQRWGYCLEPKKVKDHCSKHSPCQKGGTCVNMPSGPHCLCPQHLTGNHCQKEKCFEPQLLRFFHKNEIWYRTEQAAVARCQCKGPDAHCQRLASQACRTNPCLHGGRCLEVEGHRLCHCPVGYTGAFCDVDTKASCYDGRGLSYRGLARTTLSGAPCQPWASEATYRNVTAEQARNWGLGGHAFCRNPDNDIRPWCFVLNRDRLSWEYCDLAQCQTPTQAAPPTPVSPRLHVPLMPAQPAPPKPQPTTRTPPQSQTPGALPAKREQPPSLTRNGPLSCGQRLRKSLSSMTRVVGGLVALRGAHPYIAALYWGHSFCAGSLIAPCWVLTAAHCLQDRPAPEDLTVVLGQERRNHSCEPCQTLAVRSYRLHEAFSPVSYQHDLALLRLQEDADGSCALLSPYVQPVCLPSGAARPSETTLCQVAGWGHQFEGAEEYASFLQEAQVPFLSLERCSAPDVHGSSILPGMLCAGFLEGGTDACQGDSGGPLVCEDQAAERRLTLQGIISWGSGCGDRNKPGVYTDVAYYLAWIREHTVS

BJ [1] = test: cytotoxicity toward BJ-TERT fibroblasts, dose response, cell-based, RAS-independent, luminescence (AID 1933); assay type: functional; details: Homo sapiens
[2] = cytotoxicity toward DRD oncogenic fibroblasts, dose response, cell-based, non-viral oncogenic, luminescence (AID 1934); assay type: functional; details: Homo sapiens
[3] = Vero E6 cell cytotoxicity, dose response, cytotoxicity control for non-replicating M. tuberculosis project, secondary assay (AID 492998); assay type: functional, VeroE6; details: Vero C1008
[4] = HepG2 cell cytotoxicity, dose response, cytotoxicity control for non-replicating M. tuberculosis project (AID 489018); assay type: functional; details: Mycobacterium tuberculosis
cells = assay type: functional
[5] = molecular target: Heat shock protein HSP 90-alpha (Homo sapiens, UniProt P07900); assay type: functional, organism-based
[6] = inhibitors of firefly luciferase expression or activity, dose response, H4 neuroglioma cells, luminescence (AID 1990); assay type: functional, cell-based
[7] = HepG2 cell cytotoxicity, dose response, cytotoxicity control for Shn3 inhibitor project, CellTiter-Glo, cherry-picked (AID 624134); assay type: functional, cell-based
BJ [8] = test: cytotoxicity toward BJ-TERT-LT-ST fibroblasts, dose response, cell-based, RAS-independent, luminescence (AID 1935); assay type: functional; details: Homo sapiens;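 also: BJ fibroblasts immortalized with TERT plus LT and ST oncogenes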
[9] = growth suppression of PTEN-null colon cells, dose response, cell-based, HCT116 PTEN knockout (AID 1047); assay type: functional;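 also: HCT116 colon tumor cells with PTEN knocked out; cells exposed to compound for 60 hours before readout; potency for loss of cell viability measured by luminescence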
[10] = Luminescence Cell-Based Dose Response HTS to Identify Inhibitors of 5'UTR Stem-Loop Driven Prion Protein mRNA Translation in H4 Neuroglioblastoma Cells. [Related pubchem assays: 1827 (Project Summary), 1813 (Primary HTS)]; assay type: functional
BJ [11] = test: cells; assay type: functional, cell-based; details: Homo sapiens
[12] = inhibitors of SNCA 5'UTR-driven reporter translation, confirmation, H4 neuroglioma cells, luminescence (AID 1988); assay type: functional, cell-based
[13] = Shn3 3'UTR reporter inhibitors, dose response, cell-based, Clone20 osteoblasts, firefly luciferase, cherry-picked (AID 624132); assay type: functional;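 also: firefly luciferase luminescence from reporter carrying the Shn3 3'UTR in osteoblasts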
BJ [14] = test: cytotoxicity toward Ras-transformed BJeLR fibroblasts, dose response, cell-based, alamar blue fluorescence, cherrypicked samples (AID 2631); assay type: functional; details: Homo sapiens;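 also: confirmatory dose-response assay in RAS-dependent BJ fibroblasts engineered with TERT, LT and ST, with cytotoxicity read by fluorescence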
[15] = THP-1 cell cytotoxicity, dose response, cytotoxicity control for non-replicating M. tuberculosis project (AID 489025); assay type: functional
[16] = growth suppression of beta-catenin-knockout colon cells, dose response, cell-based, HCT116, human colon tumor (AID 1045); assay type: functional;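 also: HCT116 colon tumor cells with beta catenin knocked out; cells exposed to compound for 60 hours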
INS1 = test: beta cell apoptosis inhibitors, cytokine rescue, dose response, luminescence, retest (AID 449756); assay type: functional, cell-based; details: Rattus norvegicus;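 also: cell death triggered by IL-1 beta plus TNF-alpha plus IFN-gamma mixture; protective hits raise ATP signal compared with cytokine alone wells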
Cytochrome P450 2D6 = Cytochrome P450 2D6 (Homo sapiens, UniProt P10635);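 also: CYP2D6 member of a cytochrome P450 panel assay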
[17] = molecular target: T2, Heat shock factor protein 1 (Mus musculus, UniProt P38532); test: HSF1 potentiators in luciferase reporter cells, confirmation, cell-based, NIH3T3, luminescence, dose retest (AID 435004); assay type: functional;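 also: stress induced by proteasome inhibitor MG132 added 30 min after compound; luciferase reporter driven by HSF1 response element in NIH3T3 cells; actives raise luminescence as potentiators of the MG132 stress response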
T2 sequence (P38532 whole entry): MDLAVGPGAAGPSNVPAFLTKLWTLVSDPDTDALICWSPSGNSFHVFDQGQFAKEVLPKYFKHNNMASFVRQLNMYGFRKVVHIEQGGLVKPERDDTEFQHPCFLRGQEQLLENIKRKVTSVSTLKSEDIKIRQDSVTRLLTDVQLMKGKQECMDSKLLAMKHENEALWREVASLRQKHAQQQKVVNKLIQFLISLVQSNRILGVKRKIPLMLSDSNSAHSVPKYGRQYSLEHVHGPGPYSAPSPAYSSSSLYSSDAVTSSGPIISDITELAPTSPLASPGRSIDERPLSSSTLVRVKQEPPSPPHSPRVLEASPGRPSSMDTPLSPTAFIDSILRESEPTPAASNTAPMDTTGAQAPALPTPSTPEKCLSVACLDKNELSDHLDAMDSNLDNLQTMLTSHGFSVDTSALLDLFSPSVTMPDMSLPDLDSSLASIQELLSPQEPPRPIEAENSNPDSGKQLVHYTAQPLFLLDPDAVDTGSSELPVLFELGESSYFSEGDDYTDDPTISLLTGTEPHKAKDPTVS

Cytochrome P450 3A4 = Cytochrome P450 3A4 (Homo sapiens, UniProt P08684);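 also: CYP3A4 tested as one member of a cytochrome P450 panel screen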
[18] = control 3'UTR Renilla luciferase suppression, dose response, counter-screen for Shn3 inhibitor project, cell-based, Clone20-Shn3RL, cherry-picked (AID 624133); assay type: functional
[19] = molecular target: T3, Ubiquitin-conjugating enzyme E2 N (Homo sapiens, UniProt P61088); assay type: functional
T3 sequence (P61088 whole entry): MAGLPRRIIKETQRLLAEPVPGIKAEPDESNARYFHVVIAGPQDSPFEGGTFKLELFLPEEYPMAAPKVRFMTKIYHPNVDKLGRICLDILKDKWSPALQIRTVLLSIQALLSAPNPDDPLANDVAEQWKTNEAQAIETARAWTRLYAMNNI

[20] = molecular target: T3, Ubiquitin-conjugating enzyme E2 N; assay type: functional; remark: listed apart in the source
Bcl-2-related protein A1 = molecular target: T4, Bcl-2-related protein A1 (Mus musculus, UniProt Q07440); assay type: functional;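 also: confirmatory dose–response counterscreen on Bfl-1, used to check hits from a UBC13 polyubiquitin inhibitor campaign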
T4 sequence (Q07440 whole entry): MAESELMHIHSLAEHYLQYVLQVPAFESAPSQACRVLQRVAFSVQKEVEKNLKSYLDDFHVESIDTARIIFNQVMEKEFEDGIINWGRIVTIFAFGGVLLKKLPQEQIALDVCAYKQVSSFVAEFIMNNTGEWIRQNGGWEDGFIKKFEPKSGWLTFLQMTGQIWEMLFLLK

Chain of Cytochrome P450 3A4 (P08684 whole entry): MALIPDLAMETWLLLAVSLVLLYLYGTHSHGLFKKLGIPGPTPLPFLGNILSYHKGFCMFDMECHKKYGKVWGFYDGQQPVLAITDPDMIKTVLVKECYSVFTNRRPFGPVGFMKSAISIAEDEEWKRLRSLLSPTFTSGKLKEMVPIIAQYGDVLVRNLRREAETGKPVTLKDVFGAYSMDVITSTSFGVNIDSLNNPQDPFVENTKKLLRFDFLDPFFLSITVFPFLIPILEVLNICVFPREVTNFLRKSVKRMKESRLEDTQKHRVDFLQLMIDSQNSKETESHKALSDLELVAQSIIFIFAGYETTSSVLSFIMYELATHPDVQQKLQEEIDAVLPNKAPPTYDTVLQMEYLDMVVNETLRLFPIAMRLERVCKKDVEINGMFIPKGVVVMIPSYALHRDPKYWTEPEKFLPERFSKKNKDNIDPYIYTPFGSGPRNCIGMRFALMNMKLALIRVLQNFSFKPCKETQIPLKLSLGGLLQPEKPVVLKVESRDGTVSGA
Chain of Cytochrome P450 2D6 (P10635 whole entry): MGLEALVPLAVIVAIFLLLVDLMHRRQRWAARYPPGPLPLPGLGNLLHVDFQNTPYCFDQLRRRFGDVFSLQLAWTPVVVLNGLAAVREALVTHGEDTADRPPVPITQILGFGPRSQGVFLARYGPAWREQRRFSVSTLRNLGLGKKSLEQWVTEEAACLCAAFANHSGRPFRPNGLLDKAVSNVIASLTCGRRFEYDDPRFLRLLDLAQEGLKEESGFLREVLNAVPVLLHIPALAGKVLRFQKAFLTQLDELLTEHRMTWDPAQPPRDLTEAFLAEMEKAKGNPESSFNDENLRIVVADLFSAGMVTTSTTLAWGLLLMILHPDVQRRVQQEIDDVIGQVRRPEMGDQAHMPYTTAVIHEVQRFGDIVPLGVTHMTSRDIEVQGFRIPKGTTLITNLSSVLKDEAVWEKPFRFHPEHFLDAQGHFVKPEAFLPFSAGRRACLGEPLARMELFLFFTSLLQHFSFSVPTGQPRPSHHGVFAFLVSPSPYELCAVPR

With `CN(/N=C/c1ccc2c(c1)OCO2)c1nc(N2CCOCC2)nc(N2CCOCC2)n1` the IC50 (Coagulation factor XII) was > 50 µM (inactive).

For `COc1ccccc1CC(=O)NCc1csc(-c2cccs2)n1`, the IC50 (Coagulation factor XII) was > 50 µM (inactive).

In the case of `Cn1c(/C=C/c2ccc([N+](=O)[O-])o2)nc2ccccc2c1=O`, the EC50 (BJ [1]) is reported as 4.06 µM (active), the EC50 [2] is reported as 3.02 µM (active) and the CC50 [3] is reported as 6.22 µM (active). For the same compound, the CC50 [4] was 2.67 µM (active), the IC50 (cells) was 0.78 µM (active) and the AC50 [5] was 5 µM (active). For the same compound, the EC50 [6] was > 120 µM (not active), the AC50 [7] was 10.6 µM (active) and the EC50 (BJ [8]) was 2.75 µM (inconclusive). The EC50 [9] was < 0.059 µM (active), the EC50 [10] was > 120 µM (not active) and the EC50 (BJ [11]) was 3.51 µM (inconclusive). For the same compound, the EC50 [12] was > 120 µM (not active), the AC50 [13] was 2.37 µM (active) and the EC50 (BJ [14]) was 1.35 µM (active). For the same compound, the CC50 [15] was 1.44 µM (active), the EC50 [16] was < 0.059 µM (active) and the AC50 (INS1) was 2.55 µM (active). The AC50 (Cytochrome P450 2D6) was 17.8 µM (inconclusive), the EC50 [17] was > 260 µM (inconclusive) and the AC50 (Cytochrome P450 3A4) was 25.1 µM (inconclusive). For the same compound, the AC50 [18] was 7 µM (active).

In the case of `COc1ccc(CN(C)C(=O)Cc2ccc(OC)c(S(=O)(=O)N3CCOCC3)c2)cc1OC`, the IC50 [19] is reported as 10.8 µM (active), the IC50 [20] is reported as 12.6 µM (active) and the IC50 (Bcl-2-related protein A1) is reported as > 20 µM (inactive).

With `Cc1sc2nc(C(C)Nc3ccccc3N3CCOCC3)[nH]c(=O)c2c1C` (stereo not given) the IC50 [19] was 9.08 µM (active), the IC50 [20] was 16.5 µM (active) and the IC50 (Bcl-2-related protein A1) was > 20 µM (inactive).
